# Patent publication US20230323292A1, “METHODS FOR PRODUCING A (THREE DIMENSIONAL) NEURAL TISSUE” (TECHNISCHE UNIVERSITEIT EINDHOVEN, priority 2020, published 2023)
# Structures can show the parent of a compound that is named as a salt.
# Test system: MARC-produced cerebral tissues
# Assay: Live calcium imaging of interconnected MARC-produced cerebral tissues in the iS3CC chip after Penicillin G treatment of one chamber
# Type: cell-based, human
# Protocol: The transparent PDMS devices were repeatedly washed using 70% ethanol followed by sterilization using UV light in the safety cabinets (3×5 min). After neuronal induction phase, the cells were disassociated using Accutase and resuspended in 35 μl of a mixture of cold GFR-Matrigel and differentiation medium with a 70:30 v/v ratio at a final concentration of 50,000 cells per chamber. The chips containing cells and Matrigel-medium mixture were placed in a Petri dish to prevent contamination, since the chips have an open top, and kept in an incubator at 37° C. and 5% CO2 for 5 min to polymerize the Matrigel mixture. After that, an additional 200 μl of differentiation medium was added to each chamber and the chips were placed back into the incubator. The medium was refreshed and the culture was continued as described above, with gentler handing to prevent damage to the gel and cells.
# Live calcium imaging was performed with the same widefield epifluorescence microscope, equipped with temperature, CO2, and humidity control. The tissues were incubated in the recommended concentrations of Fluo-4 direct according to the manufacturer (Molecular Probes, F10471) for 50 min in the incubator at 37° C. and 10 min at room temperature. After that, the tissues were washed five times with the neural maintenance medium. The calcium surges were recorded using an excitation of 488 nm and an emission of 530 nm every 10 seconds. Fluorescence images were obtained using a widefield epifluorescence microscope (Leica DMi8) equipped with either a 5×/0.15 HC PL Fluotar or a 10×/0.32 HC PL Fluotar objective lens. […]
# Neuronal activity was analyzed from the time-lapse images. To account for possible drifts or deformations of the tissues, the location of the cells was detected in each frame and linked across the frames using the Mosaic particle tracker plugin in ImageJ. The fluorescence intensity of each detected cell was calculated from the image intensity data using MATLAB. Occasional gaps in the time traces, due to the cells not being detected in certain frames, were filled using spline interpolation of the intensity values. The background fluorescence in each chamber was calculated in the same way using 10 arbitrarily selected cell-sized ROIs in the cell-free regions of each chamber, averaged, and subtracted from the real (cell) data. Further, the intensity values were corrected for imaging artifacts due to out-of-focus fluorescence by subtracting the mean intensity of an annular mask with an outer radius of 18 pixels and an inner radius of 9 pixels (i.e., size of the ROI) for each ROI. […]
compound,measurement,setting,value
"CC1(C)S[C@@H]2[C@H](NC(=O)Cc3ccccc3)C(=O)N2[C@H]1C(=O)O [Penicillin G, Penicillin G sodium salt]",propagation of synchronized transient peaks from treated tissue to cells in the untreated tissue (share of the time),"4 cells per tissue, post-treatment with Penicillin G (FIG. 4e,f)",~45%
same,fluorescence in the treated tissue compared to the baseline,"treated chamber, immediately following treatment, Penicillin G sodium salt 100 mg/ml bath application, Fluo-4 calcium imaging",increased amount of fluorescence
same,neuronal activity and synchrony of transient spikes in the treated tissue,"treated chamber, post-treatment, Penicillin G 100 mg/ml, indicative for abnormal excessive discharges","increased magnitude and frequency of neuronal activity, as well as synchrony of transient spikes"
same,intensity and neuronal activity of neurons in the untreated chamber,"untreated chamber connected across 8 μm porous membrane, post-treatment of the other chamber",increased intensity and neuronal activity
